Measured values from patent US20220282285A1, “GENETICALLY-EDITED IMMUNE CELLS AND METHODS OF THERAPY” (REGENTS OF THE UNIVERSITY OF MINNESOTA, priority 2019, published 2022).
Entries after “also recorded” stand apart in the source; their conditions may differ.

What was measured:
[1] = test system: T cells; experiment: Viable cell count and percentage of viable cells post-electroporation with supplements; type: cell-based; conditions: day 7 post-electroporation; NAC 10 mM for duration, anti-IFNAR2 antibody once at 10 μg/ml
Method: This example examined the effects of treatment with NAC, Akt VIII inhibitor, or anti-IFNAR2, on post-electroporation T cell survival as well as transfection efficiency. In these experiments, 2×10^6 cells in 100 μl were electroporated non-sequentially at 36 hr post-stimulation. After electroporation, the cells were recovered for 15 min, and then split equally among 5 different supplement conditions, as listed in Table 5. NAC was added to the medium at 10 mM for duration, Akt VIII inhibitor at 8 μM for duration, and anti-IFNAR2 antibody was added to the media once at 10 μg/ml. “Nuc” in Table 2 and FIGS. 22A-22D denotes the condition where exogenous DNA was added to be inserted into cell genome at 20 μg (“+20 μg), 35 μg (“+35 μg), or 50 μg (“+50 μg”).
FIG. 23A-FIG. 23C show graphs of viable cell count in each condition on day 2, 5, and 7 post-electroporation, respectively. FIG. 23D-FIG. 23F show graphs of percentage of viable cells in each condition on day 2, 5, and 7 post-electroporation, respectively.

[2] = test system: primary T cells; experiment: Transfection efficiency: GFP or mTCR transgene expression by FACs on day 7 / day 14 post electroporation; type: cell-based, human; conditions: for stable transgene expression (percent GFP or mTCR): 14 days post-transfection, electroporated on day 0 or day 1 post stimulation (FIG. 18); for transgene expression (day 7 percent GFP or mTCR expression): T cells electroporated on day 0 or day 1 post stimulation (FIG. 17); for transgene expression (percent GFP+ or mTCR+ cells): day 14 post electroporation of plasmid donor on day 0 or day 1, Cas9, gRNA (FIG. 16)
Method: Electroporated T cells are analyzed by flow cytometry ˜24-48 hours after transfection to test for expression of GFP or other fluorochrome (marker for transgene expression). For knockout experiments, analysis for loss of target protein is conducted between 7-9 days post transfection. For knock-in experiments, measure marker expression on day 7 and day 14. Cells are prepared by washing with chilled 1×PBS with 0.5% FBS and stain according to manufacturer recommendations for each antibody.
Transfection efficiency was also assessed by examining the stable expression of the transgenes introduced by the plasmids. FIG. 15C is a graph showing percentage of GFP-expressing cells in each group of cells, and FIG. 15D is a graph showing percentage of mTCR-expressing cells in each group of cells. In these experiments, the primary T cells were transfected through electroporation with plasmid donor expressing GFP or mTCR on day 0 or 1, FACs was performed to examine the transgene expression on day 14 post electroporation.
This example examined the effects of treatment of electroporated T cells with DNase, RS-1, or both DNase and RS-1, on transfection efficiency. Primary T cells were transfected through electroporation with plasmid donor expressing GFP or mTCR on day 0 or 1, FACs was performed to examine the transgene expression on day 14 post electroporation.
FIGS. 17A-17D are FACs density plots of T cells on day 7 post electroporation.
FIGS. 18A-18B are FACs density plots of T cells on day 14 post electroporation.

[3] = test system: T cells from donors 055330, 119866, 120534; experiment: FACs analysis of electroporation efficiency (mTCR), single or sequential electroporation; type: cell-based, human
[4] = test system: activated T cell culture; experiment: Cell clumping / T cell survival 24 hours following electroporation with plasmid donor vector; type: cell-based, human; conditions: DNase in culture medium vs none
Method: • (a) Stimulated T cells are electroporated using the Neon Transfection System (100 uL or 10 ul Kit, Invitrogen, Life Technologies). • (b) Pellet cells and wash once with PBS or T buffer. • (c) Resuspend cells at a density of […] in 10 uL of T buffer for 10 ul tip, and 1×10^6 cells in 100 ul T buffer for 100 ul tips. • (d) Add specified mass of mRNA/DNA and electroporated at 1400 V, 10 ms, 3 pulses. • a. For knockout using all mRNA: • i. 100 ul tip: 15 ug Cas9 mRNA, 10 ug gRNA-RNA • ii. 10 ul tip: 1.5 ug Cas9 mRNA, 1 ug gRNA-RNA • b. When including plasmid donor for knock-in: • i. 100 ul tip: 5-20 ug plasmid • ii. 10 ul tip: 0.5-2 ug plasmid • c. For sequential electroporations: • On 0 hr timepoint deliver the amount of Cas9 specified in “a” • ii. At time point 0 hr and 6-24 hr, deliver gRNA and plasmid together in amounts specified in “a” and “b”. • (e) After transfection, plate cells at 3000 cells/ul in antibiotic free culture media containing 10 ug/ml DNase I and incubate at 37° C. in 5% CO2 for ˜20 minutes. • (f) After recovery period, add 2 times volume of antibiotic containing media to well and culture at 37° C. in 5% CO2. rAAV Transduction of CD3+ T Cells • (a) Thaw rAAV on ice and mix well prior to addition to cells. • (b) Add specified MOI at the following timepoints post-electroporation • a. For Cas9 mRNA edited cells: • i. Add virus 4-6 hours post • b. […]

[5] = test system: Primary human T cells; experiment: Percent recovery of viable transfected cells 24 hr post electroporation by flow cytometry; type: cell-based; conditions: for percent recovery of the transfected cells: 24 hr post electroporation, DNase 10 μg/ml in recovery media
Method: This example examined the effect of DNase on post-electroporation T cell survival as well as transfection efficiency. Primary human T cells were cultured and stimulated with IL-2, IL-7, and IL-15. Later the T cells were either pulsed (control) or transfected with 1.5 μg of pMND-GFP plasmid (about 7.5 kb) at 36 hr or 48 hr post-stimulation. For comparison, DNase was added to recovery media of one group of transfected cells at 10 μg/ml. Cells were incubated in this recovery media following electroporation for 30 min. And after recovery, 2 times volume of complete media was added without any wash step (therefore diluted DNase remained in the media).
Cells were analyzed 24 hr post electroporation by flow cytometry to determine the percentage of recovered viable cells, as shown in FIG. 15A. FIG. 15B is a graph showing the percent recovery of the transfected cells in each group. DNase increased percent recovery in both “36 hr pMND-GFP” group, where cells were transfected with pMND-GFP plasmid at 36 hr post-stimulation, and “48 hr pMND-GFP” group, where cells were transfected with pMND-GFP at 48 hr post-stimulation.

[6] = donor 055330, 36 hours post stimulation or 36 hours post stimulation and 6 hours post initial electroporation
[7] = donor 119866, 36 hours post stimulation or 36 hours post stimulation and 6 hours post initial electroporation
[8] = donors 055330 and 119866 at 24 hours post initial electroporation, donor 120534 at 36 hours post stimulation or plus 6 hours (FIG. 21)
[9] = T cells transfected on day 1, day 14 post electroporation, plasmid donor, Cas9, gRNA
[10] = day 14 post electroporation of plasmid donor on day 0 or 1, with vs without DNase

Row | Compound | cell viability [1] | stable transgene expression (percent GFP or mTCR) [2] | transgene expression (day 7 percent GFP or mTCR expression) [2] | transgene expression (percent GFP+ or mTCR+ cells) [2] | transgene (mTCR) expression, electroporation efficiency [3, 6] | transgene (mTCR) expression, electroporation efficiency [3, 7] | transgene (mTCR) expression, electroporation efficiency [3, 8] | cell clumping and floating dead cells [4] | lymphocyte survival after transfection ([5]; 24 hours post-electroporation of a plasmid, culture with vs without DNase) | percent recovery of the transfected cells ([5]; pMND-GFP plasmid at 36 hr post-stimulation) | percent recovery of the transfected cells ([5]; pMND-GFP plasmid at 48 hr post-stimulation) | GFP expression (percentage of GFP+ cells) [2, 9] | mTCR expression (percentage of mTCR+ cells) [2, 9] | integration efficiency, percentage of GFP-expressing cells [2, 10] | integration efficiency, percentage of mTCR-expressing cells [2, 10]
1 | CC(=O)N[C@@H](CS)C(=O)O [NAC, N-acetyl-cysteine] | increased | – | – | – | – | – | – | – | – | – | – | – | – | – | –
2 | O=C(Nc1ccc(Br)cc1)c1ccc(Br)c(S(=O)(=O)NCc2ccccc2)c1 [RS-1, 3-((benzylamino)sulfonyl)-4-bromo-N-(4-bromophenyl)benzamide] | – | increased | increased | increased | increased | increased | increased | – | – | – | – | – | – | – | –
3 | DNase | – | increased | increased | increased | increased | increased | increased | no cell clumps were visible; also recorded: did not show cell clumping or floating cell corpses | increased | increased | increased | promoted | promoted | increased | increased
